Test results taken from ChEMBL document CHEMBL5614409, “Discovery of potent HIV-1 NNRTIs by CuAAC click-chemistry-based miniaturized synthesis, rapid screening and structure optimization” (Eur J Med Chem, 2024).

How the values were obtained:
[1] = tested on: Human immunodeficiency virus 1; test: Antiviral activity against HIV1 IIIB harboring F227L/V106A double mutant infected in MT4 cells assessed as reduction in virus induced cytopathic effect incubated for 5 days by MTT method; format: functional, organism-based; details: Human immunodeficiency virus 1, IIIB, MT4, 120 h
[2] = tested on: Human immunodeficiency virus 1; test: Antiviral activity against HIV1 IIIB harboring Y188L mutant infected in MT4 cells assessed as reduction in virus induced cytopathic effect incubated for 5 days by MTT method; format: functional, organism-based; details: Human immunodeficiency virus 1, IIIB, MT4, 120 h
[3] = tested on: Human immunodeficiency virus 1; test: Antiviral activity against HIV1 IIIB harboring L100I mutant infected in MT4 cells assessed as reduction in virus induced cytopathic effect incubated for 5 days by MTT method; format: functional, organism-based; details: Human immunodeficiency virus 1, IIIB, MT4, 120 h
[4] = tested on: Human immunodeficiency virus 1; test: Antiviral activity against HIV1 IIIB harboring RES056 mutant infected in MT4 cells assessed as reduction in virus induced cytopathic effect incubated for 5 days by MTT method; format: functional, organism-based; details: Human immunodeficiency virus 1, IIIB, MT4, 120 h
[5] = Cytotoxicity against human MT4 cells assessed as reduction in cell viability incubated for 5 days by MTT method; format: toxicity, cell-based; details: time 5 day
[6] = tested on: Human immunodeficiency virus 1; test: Antiviral activity against HIV1 IIIB harboring Y181C mutant infected in MT4 cells assessed as reduction in virus induced cytopathic effect incubated for 5 days by MTT method; format: functional, organism-based; details: Human immunodeficiency virus 1, IIIB, MT4, 120 h
[7] = tested on: Human immunodeficiency virus 1; test: Antiviral activity against HIV1 IIIB harboring E138K mutant infected in MT4 cells assessed as reduction in virus induced cytopathic effect incubated for 5 days by MTT method; format: functional, organism-based; details: Human immunodeficiency virus 1, IIIB, MT4, 120 h
[8] = tested on: Human immunodeficiency virus 1; test: Antiviral activity against HIV1 IIIB infected in MT4 cells assessed as reduction in virus induced cytopathic effect incubated for 5 days by MTT method; format: functional, organism-based; details: Human immunodeficiency virus 1, IIIB, MT4, 120 h
[9] = tested on: Human immunodeficiency virus 1; test: Antiviral activity against HIV1 IIIB harboring K103 N mutant infected in MT4 cells assessed as reduction in virus induced cytopathic effect incubated for 5 days by MTT method; format: functional, organism-based; details: Human immunodeficiency virus 1, IIIB, MT4, 120 h
[10] = Selectivity index, ratio of CC50 for human MT4 cells to EC50 for antiviral activity against HIV1 IIIB infected in MT4 cells; format: toxicity, cell-based; details: read-out: Ratio CC50/EC50
[11] = biological target: Human immunodeficiency virus type 1 reverse transcriptase (Human immunodeficiency virus 1) (UniProt Q72547); test: Inhibition of HIV-1 reverse transcriptase incubated for 2 hrs in presence of template and viral nucleotides by ELISA relative to control; design: concentration or dose not given beside the values; details: concentration not given here

| Structure (SMILES) | EC50 [1] | EC50 [2] | EC50 [3] | EC50 [4] | CC50 at 120 h [5] | EC50 [6] | EC50 [7] | EC50 [8] | EC50 [9] | selectivity ratio [10] | inhibition [11] |
| --- | --- | --- | --- | --- | --- | --- | --- | --- | --- | --- | --- |
| CCNC(=O)Cn1cc(CN2CCC(Nc3nc(Oc4c(C)cc(/C=C/C#N)cc4C)c4ccccc4n3)CC2)nn1 | 927 nM | 60 nM | 18 nM | 241 nM | 23700 nM | 33 nM | 36 nM | 5 nM | 10 nM | 4230 |  |
| Cc1cc(/C=C/C#N)cc(C)c1Oc1nc(NC2CCN(Cc3cn(CC(=O)NC4CCOCC4)nn3)CC2)nc2c1COC2 | 687 nM | 159 nM | 21 nM | 385 nM | 112000 nM | 38 nM | 25 nM | 11 nM | 16 nM | 10400 |  |
| Cc1cc(C#N)cc(C)c1Oc1nc(Nc2ccc(C#N)cc2)nc(N)c1Br [ETRAVIRINE] |  |  | 7 nM | 38 nM | > 4600 nM | 12 nM | 4 nM |  | 3 nM | > 1090 | 52.3% |
| CNC(=O)Cn1cc(CN2CCC(Nc3nc(Oc4c(C)cc(/C=C/C#N)cc4C)c4ccccc4n3)CC2)nn1 | 257 nM | 49 nM | 8 nM | 139 nM | 18100 nM | 18 nM | 13 nM | 5 nM |  | 4020 |  |
| Cc1cc(/C=C/C#N)cc(C)c1Oc1ccnc(NCCc2cn(Cc3ccc(S(N)(=O)=O)cc3)nn2)n1 |  |  |  |  |  |  |  |  |  |  | 69.2% |
| Cc1cc(/C=C/C#N)cc(C)c1Oc1nc(NC2CCN(Cc3cn(CC(N)=O)nn3)CC2)nc2ccsc12 | 94 nM | 97 nM | 18 nM | 240 nM | 16200 nM | 32 nM | 21 nM | 5 nM | 8 nM | 3000 |  |
| Cc1cc(/C=C/C#N)cc(C)c1Oc1nc(NC2CCN(Cc3cn(CC(=O)NC4CC4)nn3)CC2)nc2c1COC2 | 275 nM | 114 nM | 16 nM | 304 nM | 118000 nM | 33 nM | 15 nM | 5 nM | 8 nM | 22800 |  |
| Cc1cc(/C=C/C#N)cc(C)c1Oc1nc(NC2CCN(Cc3cn(CC(=O)NC4CCOCC4)nn3)CC2)nc2ccccc12 | 645 nM | 55 nM | 15 nM | 161 nM | 18400 nM | 31 nM | 27 nM | 8 nM | 14 nM | 2300 |  |
| CCNC(=O)Cn1cc(CN2CCC(Nc3nccc(Oc4c(C)cc(/C=C/C#N)cc4C)n3)CC2)nn1 | 164 nM | 406 nM | 7 nM | 215 nM | 20700 nM | 7 nM | 11 nM | 1 nM | 2 nM | 14800 |  |
| Cc1cc(/C=C/C#N)cc(C)c1Oc1ccnc(NC2CCN(Cc3cn(CC(N)=O)nn3)CC2)n1 | 188 nM | 729 nM | 30 nM | 547 nM | 47400 nM | 21 nM | 24 nM | 2 nM | 3 nM | 21600 |  |
| CNC(=O)Cn1cc(CN2CCC(Nc3nccc(Oc4c(C)cc(/C=C/C#N)cc4C)n3)CC2)nn1 | 209 nM | 551 nM | 10 nM | 262 nM | 23500 nM | 11 nM | 10 nM | 1 nM | 2 nM | 19600 |  |
| Cc1cc(C#N)cc(C)c1Oc1ccnc(NC2CCN(Cc3cn(Cc4ccccc4C#N)nn3)CC2)n1 | 1040 nM | 366 nM | 231 nM | > 4240 nM | 4240 nM | 27 nM | 27 nM | 2 nM | 15 nM | 2020 | 91.3% |
| CNC(=O)Cn1cc(CN2CCC(Nc3nc(Oc4c(C)cc(/C=C/C#N)cc4C)c4sccc4n3)CC2)nn1 | 66 nM | 44 nM | 6 nM | 99 nM | 18400 nM | 16 nM | 14 nM | 4 nM | 5 nM | 4720 |  |
| COC(=O)Cn1cc(CCNc2nccc(Oc3c(C)cc(/C=C/C#N)cc3C)n2)nn1 |  |  |  |  |  |  |  |  |  |  | 65.3% |
| CCNC(=O)Cn1cc(CN2CCC(Nc3nc(Oc4c(C)cc(/C=C/C#N)cc4C)c4sccc4n3)CC2)nn1 | 168 nM | 80 nM | 12 nM | 181 nM | 17500 nM | 25 nM | 33 nM | 5 nM | 6 nM | 3640 |  |
